Reference: patent US20040054195A1, “Xanthene derivatives” (priority 2003, published 2004)
Several values for one entry are separate records, joined by “and”; a condition that tells them apart may be missing. Identical values can stand only once.

Legend:
[1] = Photostability study: irradiation with a 200 W soft white bulb, fluorescence of aliquots vs. time; type: physicochemical; conditions: 50 nM in pH 10 borate buffer, 200 watt soft white bulb at 10 cm, excitation at 459 nm, FIG. 4
Protocol: FIG. 4. Photostability comparison vs. time (hour) of 5 (*), 8 (▪), fluorescein (Δ) and BODIPY FL (♦); concentration 50 nM in pH 10 borate buffer. Excited at 459 nm for 5 and 8, 488 nm for fluorescein, 505 nm for BODIPY FL.
The photostability study was conducted by irradiating a 50 nM pH 10 sample solution of each dye (1, BODIPY-FL, 5 and 8) using a Hotspot lamp (Cheltenham, Pa.) with a 200W soft white bulb (General Electric, Canada), positioned at a distance of 10 cm between the sample and the bulb. The sample solution was cooled by circulating room temperature water. Fluorescence spectra were recorded on aliquots taken as a function of time.

[2] = UV absorbance spectrum in pH 10 borate buffer; type: physicochemical; conditions: 10 μM, inset of FIG. 3
Protocol: FIG. 3. Fluorescence spectra. Curve A: BODIPY FL in pH 10 buffer, 50 nM, excited at 505 nm, excitation and emission slit 2.5 nm; Curve B: fluorescein in pH 10 borate buffer, 50 nM, excited at 488 nm, excitation and emission slit 2.5 nm; Curve C: compound 8 in pH 10 borate buffer, 50 nM, excited at 459 nm, excitation slit 2.5 nm, emission slit 8 nm; Curve D: compound 8 in methanol, 50 nM, excited at 459 nm, excitation slit 2.5 nm, emission slit 8 nm; Inset is UV spectrum of 8 in pH 10 borate buffer, 10 μM, peak absorption wavelength: 459 nm and 483 nm.
In FIG. 3 the fluorescence spectra of fluorescein, a BODPIY FL dye (Molecular Probes Inc., Eugene Oreg.), and xanthamide dye 8 are compared. Fluorescein and BODIPY dyes are popular, and many instruments have been set up for their measurement. Thus it is attractive that xanthamide dye 8 has a similar fluorescence emission relative to that of fluorescein and a typical BODIPY dye. […] This adds to the practicality of 8.

COc1ccc2c(-c3ccccc3C(=O)N3CCC(C(=O)O)CC3)c3ccc(=O)cc-3oc2c1 [compound 8, 1-[2-(6-Methoxy-3-oxo-3H-xanthen-9-yl)-benzoyl]-piperidine-4-carboxylic acid]
photostability relative to fluorescein and a typical BODIPY dye [1]: remarkable photostability | absorbance maxima [2]: 459 nm and 483 nm

CN(C)C(=O)c1ccccc1-c1c2ccc(=O)cc-2oc2cc(OCC(=O)O)ccc12 [compound 5, [9-(2-Dimethylcarbamoyl-phenyl)-6-oxo-6H-xanthen-3-yloxy]-acetic acid]
photostability relative to fluorescein and a typical BODIPY dye [1]: very good photostability
